Consider 21 compounds from article PMC9635925, “Biological screening of a unique drug library targeting MRGPRX2” (Frontiers in Immunology, 2022).

In one experiment the target is T1, MRGPRX2 N62S (Homo sapiens, UniProt Q96LB1, N62S).
T1 construct: expressed in transfected cells
T1 sequence (Q96LB1 1-330 N62S): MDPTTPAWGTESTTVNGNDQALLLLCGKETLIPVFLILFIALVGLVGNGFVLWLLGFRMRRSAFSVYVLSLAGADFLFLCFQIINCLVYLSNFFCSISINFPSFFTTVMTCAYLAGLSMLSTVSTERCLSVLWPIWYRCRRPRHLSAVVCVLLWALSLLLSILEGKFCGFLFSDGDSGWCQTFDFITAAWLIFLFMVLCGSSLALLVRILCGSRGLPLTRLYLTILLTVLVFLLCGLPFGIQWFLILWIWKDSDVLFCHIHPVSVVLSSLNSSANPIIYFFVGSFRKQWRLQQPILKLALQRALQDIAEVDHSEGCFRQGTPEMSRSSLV
Description: Calcium response dose-response curves in HEK293-Gα15 cells expressing MRGPRX2 N62S. The class given is cell-based. The following applies: P=0.013, unpaired t-test.

Experiment [1] deals with T2, MRGPRX2-WT (wild-type MRGPRX2 receptor) (Homo sapiens, UniProt Q96LB1).
T2 construct: expressed in transfected cells
T2 sequence (Q96LB1 1-330): T1 sequence (Q96LB1 1-330 N62S) with S62N
Description: Primary HTS, Ca2+ mobilization (fluorescence ratio, B-score) in HEK293-Gα15 cells stably expressing wild-type MRGPRX2. The following applies: for B-scores (WT): 10 μM compound. It counts as cell-based.

In experiment [2] the target is T3, MRGPRX2-MUT (MRGPRX2 N62S mutation) (Homo sapiens, UniProt Q96LB1, N62S).
T3 construct: expressed in transfected cells
T3 sequence (Q96LB1 1-330 N62S): T1 sequence (Q96LB1 1-330 N62S)
Put plainly: Primary HTS, Ca2+ mobilization (fluorescence ratio, B-score) in HEK293-Gα15 cells stably expressing the MRGPRX2 N62S mutation. The class given is cell-based. The following applies: for B-scores (MUT): 10 μM compound, MRGPRX2-MUT (N62S) cells; for Change of B-scores (%): 10 μM.

Another experiment concerns LAD2 cells. Description: β-hexosaminidase release (degranulation) in human mast cell line LAD2. It counts as cell-based. The protocol:
(§1) The human mast cell line LAD2 (Laboratory of Allergic Diseases-2) was obtained from Dean Metcalfe, MD (National Institute of Allergy and Infectious Diseases, National Institutes of Health, Bethesda, MD). […] We included two negative and two positive controls for the validation experiments in LAD2 cells. […] Additionally, vehicle control (without any drugs) was also included as the negative control. Drugs were dissolved in PBS (vehicle) and six concentrations were tested for each drug; the known MRGPRX2 agonist C48/80 (10 μg/mL) and Tween 20 (1%), which is a known mast cell activator via MRGPRX2 independent mechanism, were used as positive controls. Two-way ANOVA with the Sidak multiple comparisons test was used for statistical analysis (n=6).
(§2) We further investigated whether these newly discovered candidate drugs can serve as agonists for MRGPRX2-dependent activation of MCs.

In experiment [3] the test system is MRGPRX2-deficient LAD2 cells. Description: β-hexosaminidase release in MRGPRX2-deficient LAD2 cells (CRISPR/Cas9). It counts as cell-based, human. The following applies: two-way ANOVA, P< 0.0001. As to the method: as §1, §2
In the next experiment the test system is MRGPRX2. The following applies: weak agonist; cited from earlier work.
Another experiment concerns the target T4, MRGPRX2-WT (Homo sapiens, UniProt Q96LB1).
T4 construct: expressed in transfected cells
T4 sequence (Q96LB1 1-330): T1 sequence (Q96LB1 1-330 N62S) with S62N
Put plainly: Calcium response dose-response curves in HEK293-Gα15 cells expressing MRGPRX2-WT. The class given is cell-based.

The subject of experiment [4] is HEK293-Gα15 cells without MRGPRX2. Description: Calcium release in HEK293-Gα15 cells without MRGPRX2 (negative control screening). The following applies: compared to MRGPRX2-WT or MRGPRX2-N62S cells, data not shown.
Setting [5] is: MRGPRX2-MUT versus MRGPRX2-WT cells, Supplementary Table 2.
Setting [6] is: MRGPRX2-MUT in comparison to MRGPRX2-WT cells, Supplementary Table 1.
The mark [7] stands for this setting: MRGPRX2-MUT in comparison to MRGPRX2-WT cells, Table 1.

Numbering of substitutions follows the chain as printed. Counter-ions that a name gives are not always drawn.

On to `COc1cccc2c1C(=O)c1c(O)c3c(c(O)c1C2=O)C[C@@](O)(C(C)=O)C[C@@H]3O[C@H]1C[C@H](N)[C@H](O)[C@H](C)O1` [Daunorubicin Hydrochloride], for which the “EC50 values comparing MRGPRX2-MUT to MRGPRX2-WT cells” value at MRGPRX2 N62S is recorded as “demonstrated the LOF property”. In addition, in experiment [1] (Supplementary Table 2), the “B-scores (WT)” value amounted to 2.95. Moreover, in experiment [2] (Supplementary Table 2), the “B-scores (MUT)” value was 15.19. Further, in experiment [2] (setting [5]), the “Change of B-scores (%)” value amounted to 414.49%.
For the compound `CN(C)CCC(c1ccc(Br)cc1)c1ccccn1` (centres unmarked) [Brompheniramine Maleate], the β-hexosaminidase release in the experiment on LAD2 cells (at 500 μM) was determined as 56.43%. For the same compound, the “B-scores (WT)” value in experiment [1] (Supplementary Table 1), in experiment [1] (Supplementary Table 2) and in experiment [1] (Table 1) was 41.41 throughout. Besides, the “B-scores (MUT)” value in experiment [2] (Supplementary Table 1), in experiment [2] (Supplementary Table 2) and in experiment [2] (Table 1) was 1.21 each time. Besides, the “Change of B-scores (%)” value in experiment [2] (setting [6]), in experiment [2] (setting [7]) and in experiment [2] (setting [5]) was -97.07% in each case. The “degranulation (β-hexosaminidase release) in LAD2 cells lacking MRGPRX2” value (“degranulation (β-hexosaminidase release)” below) in experiment [3] is given as “decreased to the level of vehicle controls”.
As for `CN[C@H](CC(C)C)C(=O)N[C@H]1C(=O)N[C@@H](CC(N)=O)C(=O)N[C@H]2C(=O)N[C@H]3C(=O)N[C@H](C(=O)N[C@H](C(=O)O)c4cc(O)cc(O)c4-c4cc3ccc4O)[C@H](O)c3ccc(c(Cl)c3)Oc3cc2cc(c3O[C@@H]2O[C@H](CO)[C@@H](O)[C@H](O)[C@H]2O[C@H]2C[C@](C)(N)[C@H](O)[C@H](C)O2)Oc2ccc(cc2Cl)[C@H]1O` [vancomycin], in experiment [1] (10 μM), the B-score value worked out at 16.36. Further, the “calculated EC50” value in the experiment on MRGPRX2 was 60 µg/mL.
Regarding `COc1cccc2c1C(=O)c1c(O)c3c(c(O)c1C2=O)C[C@@](O)(C(=O)CO)C[C@@H]3O[C@H]1C[C@H](N)[C@H](O)[C@H](C)O1` [Doxorubicin Hydrochloride], at MRGPRX2-WT, the EC50 was 131 nM.
Take `Cc1ccc(NC(=O)c2ccc(CN3CCN(C)CC3)cc2)cc1Nc1nccc(-c2cccnc2)n1` [Imatinib Mesylate]: in the experiment on LAD2 cells (at 125 μM), the β-hexosaminidase release was 58.42%. In experiment [3], the “degranulation (β-hexosaminidase release)” value is “decreased to the level of vehicle controls”.
For the compound Bacitracin A, the β-hexosaminidase release with LAD2 cells (at 500 μM) is given as 61.94%. For the same compound, the “B-scores (WT)” value in experiment [1] (Supplementary Table 1) and in experiment [1] (Table 1) was 20.22 in each case. Also, in experiment [2] (Table 1), the “B-scores (MUT)” value is given as -0.17. For the same compound, the “degranulation (β-hexosaminidase release)” value in experiment [3] is reported as “decreased to the level of vehicle controls”.
Consider `CSCC[C@H](NC(=O)[C@H](CC(C)C)NC(=O)CNC(=O)[C@H](Cc1ccccc1)NC(=O)[C@H](Cc1ccccc1)NC(=O)[C@H](CCC(N)=O)NC(=O)[C@H](CCC(N)=O)NC(=O)[C@@H]1CCCN1C(=O)[C@H](CCCCN)NC(=O)[C@@H]1CCCN1C(=O)[C@@H](N)CCCNC(=N)N)C(N)=O` [SP, substance P], for which, in experiment [4], the “calcium response in empty HEK293-Gα15 cells” value is “no increase in calcium response was detected”.
As to `CCOC(=O)[C@H](CCc1ccccc1)N[C@@H](C)C(=O)N1[C@H](C(=O)O)C[C@@H]2CCC[C@@H]21` [Ramipril], the “B-scores (WT)” value in experiment [1] (Supplementary Table 1) was determined as 22.18. Also, in experiment [2] (Supplementary Table 1), the “B-scores (MUT)” value stood at 31.66. Further, in experiment [2] (setting [6]), the “Change of B-scores (%)” value came to 42.73%.
On to `CN(C)CCOC(c1ccccc1)c1ccccc1` [Diphenhydramine Hydrochloride], for which the “B-scores (WT)” value in experiment [1] (Supplementary Table 2) is reported as 10.26. Further, the “B-scores (MUT)” value in experiment [2] (Supplementary Table 2) is 0.66. Further, the “Change of B-scores (%)” value in experiment [2] (setting [5]) is listed as -93.55%.
Regarding `CN1[C@@H]2CC[C@H]1C[C@@H](OC(=O)C(CO)c1ccccc1)C2` (some centres unmarked) [Atropine], the “B-scores (WT)” value in experiment [1] (Supplementary Table 1) and in experiment [1] (Supplementary Table 2) was 18.59 throughout. In addition, in experiment [2] (Supplementary Table 2), the “B-scores (MUT)” value is listed as -0.95. The “Change of B-scores (%)” value in experiment [2] (setting [6]) and in experiment [2] (setting [5]) was -105.08% each time.
For the compound `C[C@@H](Oc1cc(-c2cnn(C3CCNCC3)c2)cnc1N)c1c(Cl)ccc(F)c1Cl` [Crizotinib], the “B-scores (WT)” value in experiment [1] (Supplementary Table 1) and in experiment [1] (Table 1) was 22.06 in each case. In addition, the “B-scores (MUT)” value in experiment [2] (Table 1) is given as -0.44. Moreover, the “Change of B-scores (%)” value in experiment [2] (setting [6]) and in experiment [2] (setting [7]) was -101.99% each time.
Regarding `NC[C@H](O)c1ccc(O)c(O)c1` [Norepinephrine], the “B-scores (WT)” value in experiment [1] (Supplementary Table 1) amounted to 28.83. The “B-scores (MUT)” value in experiment [2] (Supplementary Table 1) came out at 7.54. Further, in experiment [2] (setting [6]), the “Change of B-scores (%)” value is listed as -73.85%.
In the case of `CNCC[C@H](Oc1cccc2ccccc12)c1cccs1` [Duloxetine Hydrochloride], the “B-scores (WT)” value in experiment [1] (Supplementary Table 1) amounted to 44.22. Further, the “B-scores (MUT)” value in experiment [2] (Supplementary Table 1) is on record as 0.64. Further, in experiment [2] (setting [6]), the “Change of B-scores (%)” value is -98.55%.
The like results for `CCCCC[C@H](O)/C=C/[C@@H]1[C@H]2C/C(=C/CCCC(=O)O)O[C@H]2C[C@H]1O` [Epoprostenol] were, in that order, 27.44, 10.83 and -60.51%.
For `CN1[C@@H]2CC[C@H]1C[C@@H](OC(=O)C(CO)c1ccccc1)C2` (some centres unmarked) [Atropine Sulfate], the “B-scores (WT)” value in experiment [1] (Supplementary Table 1) and in experiment [1] (Supplementary Table 2) was 41.43 each time. Further, the “B-scores (MUT)” value in experiment [2] (Supplementary Table 2) is given as -0.13. Also, the “Change of B-scores (%)” value in experiment [2] (setting [6]) and in experiment [2] (setting [5]) was -100.31% in each case.
For the compound `COc1cccc2c1C(=O)c1c(O)c3c(c(O)c1C2=O)C[C@@](O)(C(C)=O)C[C@@H]3O[C@H]1C[C@H](N)[C@H](O)[C@H](C)O1` [Daunorubicin], the “B-scores (WT)” value in experiment [1] (Supplementary Table 2) was 8.85. Also, the “B-scores (MUT)” value in experiment [2] (Supplementary Table 2) was 37.13. In experiment [2] (setting [5]), the “Change of B-scores (%)” value was determined as 319.41%.
As to `CCCCC[C@H](O)/C=C/[C@H]1[C@H](O)CC(=O)[C@@H]1C/C=C\CCCC(=O)O` [Dinoprostone (Prostaglandin E2)], the “B-scores (WT)” value in experiment [1] (Supplementary Table 1) amounted to 40.59. Besides, in experiment [2] (Supplementary Table 1), the “B-scores (MUT)” value is 17.30. Besides, the “Change of B-scores (%)” value in experiment [2] (setting [6]) is given as -57.38%.
For `CNCCCC1c2ccccc2C=Cc2ccccc21` [Protriptyline Hydrochloride], the “B-scores (WT)” value in experiment [1] (Supplementary Table 1) and in experiment [1] (Table 1) was 24.43 each time. In addition, the “B-scores (MUT)” value in experiment [2] (Supplementary Table 1) and in experiment [2] (Table 1) was 3.59 throughout. Also, the “Change of B-scores (%)” value in experiment [2] (setting [6]) and in experiment [2] (setting [7]) was -85.30% each time.
For the compound `CN1CCC(=C2c3ccccc3CC(=O)c3sccc32)CC1` [Ketotifen], the “B-scores (WT)” value in experiment [1] (Supplementary Table 1) and in experiment [1] (Table 1) was 20.12 throughout. The “B-scores (MUT)” value in experiment [2] (Supplementary Table 1) and in experiment [2] (Table 1) was 1.38 throughout. Also, the “Change of B-scores (%)” value in experiment [2] (setting [6]) and in experiment [2] (setting [7]) was -93.13% throughout.
For the compound `CC(=O)OCC[N+](C)(C)C` [Acetylcholine Chloride], the “B-scores (WT)” value in experiment [1] (Supplementary Table 1) and in experiment [1] (Supplementary Table 2) was 47.11 throughout. The “B-scores (MUT)” value in experiment [2] (Supplementary Table 1) and in experiment [2] (Supplementary Table 2) was 65.23 each time. Moreover, the “Change of B-scores (%)” value in experiment [2] (setting [6]) and in experiment [2] (setting [5]) was 38.45% each time.
Consider `C[C@H]1COc2c(N3CCN(C)CC3)c(F)cc3c(=O)c(C(=O)O)cn1c23` [Levofloxacin], for which the “B-scores (WT)” value in experiment [1] (Supplementary Table 1) and in experiment [1] (Table 1) was 39.73 each time. Further, the results for the “B-scores (MUT)” value in experiment [2] (Supplementary Table 1) and in experiment [2] (Table 1) were 0.74 and -0.74, respectively. For the same compound, the “Change of B-scores (%)” value in experiment [2] (setting [6]) and in experiment [2] (setting [7]) was -101.85% throughout.
